Reference: article PMC7044277 (Nature Communications, 2020)
Several values for one entry are separate records, joined by “and”; a condition that tells them apart may be missing. Equal entries are not always repeated.

How the values were obtained:
Type in all cases: cell-based
[1] = molecular target: 320 non-olfactory GPCRs (Homo sapiens, UniProt P11229)
[2] = molecular target: 320 non-olfactory GPCRs (Homo sapiens, UniProt P21918)
[3] = molecular target: T1, 320 non-olfactory GPCRs (Homo sapiens, UniProt P50052)
T1 construct: expressed in transfected cells; host or cells: HTLA cells

[4] = molecular target: T2, 320 non-olfactory GPCRs (Homo sapiens, UniProt Q9H244); details: receptor P2RY12; replicate values, Fig_4g
T2 construct: expressed in transfected cells; host or cells: HTLA cells
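Wherever Fold of Basal is given: compound tested at 1 µM final concentration.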
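Wherever GPCRome agonism screen response is given: fold over basal response of each receptor without drug.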

T1 sequence (P50052 whole entry): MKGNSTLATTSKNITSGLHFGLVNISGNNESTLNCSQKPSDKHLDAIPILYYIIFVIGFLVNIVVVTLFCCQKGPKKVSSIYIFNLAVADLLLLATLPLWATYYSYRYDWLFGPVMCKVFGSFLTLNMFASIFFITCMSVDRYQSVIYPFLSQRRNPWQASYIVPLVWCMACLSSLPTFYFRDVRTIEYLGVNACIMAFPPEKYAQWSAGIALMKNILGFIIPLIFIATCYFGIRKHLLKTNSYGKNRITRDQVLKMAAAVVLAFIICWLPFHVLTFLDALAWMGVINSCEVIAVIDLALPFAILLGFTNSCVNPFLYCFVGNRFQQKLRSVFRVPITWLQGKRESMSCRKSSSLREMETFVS
Chain of 320 non-olfactory GPCRs (Homo sapiens, UniProt P21918) (P21918 whole entry): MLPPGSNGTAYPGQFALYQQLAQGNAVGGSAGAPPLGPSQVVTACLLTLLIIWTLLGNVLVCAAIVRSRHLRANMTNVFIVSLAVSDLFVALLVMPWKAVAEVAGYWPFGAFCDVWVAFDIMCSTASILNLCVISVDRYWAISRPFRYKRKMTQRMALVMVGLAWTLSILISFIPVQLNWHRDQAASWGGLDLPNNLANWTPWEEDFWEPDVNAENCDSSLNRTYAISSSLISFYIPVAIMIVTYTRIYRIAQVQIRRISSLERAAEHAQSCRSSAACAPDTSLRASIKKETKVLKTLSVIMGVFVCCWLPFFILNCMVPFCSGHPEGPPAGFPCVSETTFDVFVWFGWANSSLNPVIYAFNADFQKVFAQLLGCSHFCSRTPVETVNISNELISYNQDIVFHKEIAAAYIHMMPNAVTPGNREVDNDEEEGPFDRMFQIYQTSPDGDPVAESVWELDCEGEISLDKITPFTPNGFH
Chain of 320 non-olfactory GPCRs (Homo sapiens, UniProt P11229) (P11229 whole entry): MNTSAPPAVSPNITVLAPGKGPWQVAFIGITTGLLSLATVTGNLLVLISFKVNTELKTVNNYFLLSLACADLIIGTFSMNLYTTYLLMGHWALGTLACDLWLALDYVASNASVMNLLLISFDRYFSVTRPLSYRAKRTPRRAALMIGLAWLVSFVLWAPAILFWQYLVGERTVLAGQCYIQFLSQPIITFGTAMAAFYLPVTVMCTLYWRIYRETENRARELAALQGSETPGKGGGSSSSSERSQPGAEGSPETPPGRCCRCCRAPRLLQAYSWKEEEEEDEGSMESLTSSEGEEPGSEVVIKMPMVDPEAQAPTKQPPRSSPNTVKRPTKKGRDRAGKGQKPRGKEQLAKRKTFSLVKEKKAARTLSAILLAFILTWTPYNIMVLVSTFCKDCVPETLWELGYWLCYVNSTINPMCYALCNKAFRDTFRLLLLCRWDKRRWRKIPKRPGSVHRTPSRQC
T2 sequence (Q9H244 whole entry): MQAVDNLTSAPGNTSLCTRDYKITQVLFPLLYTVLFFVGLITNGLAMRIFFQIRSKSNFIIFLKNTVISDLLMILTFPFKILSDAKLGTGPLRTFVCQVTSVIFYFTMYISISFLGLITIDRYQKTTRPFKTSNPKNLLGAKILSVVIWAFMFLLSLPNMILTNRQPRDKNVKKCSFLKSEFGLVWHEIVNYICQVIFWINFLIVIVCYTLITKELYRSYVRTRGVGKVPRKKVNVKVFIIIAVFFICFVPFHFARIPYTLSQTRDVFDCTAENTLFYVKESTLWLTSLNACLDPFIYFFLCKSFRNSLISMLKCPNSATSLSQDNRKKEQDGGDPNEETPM

In the case of CCOc1cccc2cc(C(C)NCC3(O)CCCCC3)oc12 (stereo not shown) [O4LE6], the “Fold of Basal” value [1] is reported as 0.6962 and 0.7878 and 0.5081 and 0.6515, the “Fold of Basal” value [2] is reported as 1.173 and 0.6004 and 0.7155 and 0.7884 and the “Fold of Basal” value [3] is reported as 1.003 and 1.182 and 1.322 and 1.107. For the same compound, the “GPCRome agonism screen response” value [4] was 1.331 and 0.8524 and 1.417 and 1.455.
